Source: patent US5739294A, “Bicyclopol yazamacrocyclophosphonic acid complexes for use as contrast agents” (priority 1994, dated 1998)

What was measured:
[1] = MRI imaging experiments in rats; type: in vivo, Sprague Dawley rat; details: rat, intramuscular, 0.05-0.1 mmol Gd/kg
Procedure: Injectable solutions were first prepared (0.5M) by dissolving the appropriate amount of each complex in 2 mL of deionized water. The pH of the solutions were then adjusted to 7.4 using 1M HCl or NaOH as needed. The total Gd content of each solution was then determined by ICP analysis.
An anesthetized Sprague Dawley rat was injected intramuscularly with one of the metal solutions described above at a dose of 0.05-0.1 mmol Gd/kg body weight. Images were then taken at various time intervals and compared with a non-injected control at time 0.

[2] = in vivo; cited from earlier work
[3] = compared with Magnevist; cited from earlier work
[4] = biodistribution, percent of injected dose in tissues of rats; type: in vivo, Sprague Dawley rats; details: rat, tail vein; for % injected dose, Blood: blood assumed 7% of body weight; for % injected dose, Muscle: muscle assumed 43% of body weight; for % injected dose, Bone: percent dose in femur × 25
Procedure: Sprague Dawley rats were allowed to acclimate for five days then injected with 100 μL of the complex solution via a tail vein. The rats weighed between 150 and 200 g at the time of injection. […] The amount of radioactivity in each tissue was determined by counting in a NaI scintillation counter coupled to a multichannel analyzer. The counts were compared to the counts in 100 μL standards in order to determine the percentage of the dose in each tissue or organ.
The percent dose in blood was estimated assuming blood to be 7% of the body weight. The percent dose in bone was estimated by multiplying the percent dose in the femur by 25. The percent dose in muscle was estimated assuming muscle to be 43% of the body weight. […]

[5] = percent metal as a complex (Sephadex column, ^153 Sm tracer); type: physicochemical; details: 1:1 ligand/metal, SmCl3 3×10^-4 M in 0.01N HCl
Procedure: A stock ^159 GdCl3 (or ^153 SmCl3) solution was prepared by adding 2 μL of 3×10^-4 M ^159 GdCl3 in 0.1N HCl to 2 mL of a 3×10^-4 M GdCl3 carrier solution. Appropriate ligand solutions were then prepared in deionized water. The 1:1 ligand/metal complexes were then prepared by combining the ligands (dissolved in 100-500 μL of deionized water) with 2 mL of the stock ^159 GdCl3 solution, followed by through mixing to give an acidic solution (pH=2). The pH of the solution was then raised to 7.0 using 0.1N NaOH. The percent metal as a complex was then determined by passing a sample of the complex solution through a Sephadex™ G-50 column, eluting with 4:1 saline ([…]) and collecting 2×3 mL fractions. The amount of radioactivity in the combined elutions was then compared with that left on the resin (non-complexed metal is retained on the resin). […]
A solution of the ligand of Example 1 was prepared by dissolving 3.8 mg of ligand/0.517 mL of deionized water (pH=2). […] After thorough mixing, the percent metal as a complex was determined by passing a sample of the complex solution through a Sephadex™ column, eluting with 4:1 saline (0.85% NaCl/NH4 OH), and collecting 2×3 mL fractions. The amount of radioactivity in the combined elutions was then compared with that left on the resin. […] By this method complexation was determined to be 98%. […]

Row | Compound | % injected dose, Brain ([4]; 2 hours post injection) | % injected dose, Heart ([4]; 2 hours post injection) | % injected dose, Kidney ([4]; 2 hours post injection) | % injected dose, Large Intestine ([4]; 2 hours post injection) | % injected dose, Liver ([4]; 2 hours post injection) | % injected dose, Lung ([4]; 2 hours post injection) | % injected dose, Small Intestine ([4]; 2 hours post injection) | % injected dose, Spleen ([4]; 2 hours post injection) | % injected dose, Stomach ([4]; 2 hours post injection) | % injected dose, Blood ([4]; 2 hours post injection) | % injected dose, Muscle ([4]; 2 hours post injection) | % injected dose, Bone ([4]; 2 hours post injection) | other results
1 | O=P(O)(O)CN1CCN(CP(=O)(O)O)Cc2cccc(n2)CN(CP(=O)(O)O)CC1.[Gd] [Gd-PCTMP] | – | – | – | – | – | – | – | – | – | – | – | – | MR image enhancement, kidney [1]: kidney enhancement; bone localization in MR image [1]: bone localization in the shoulder, spine and sternum
2 | CNC[C@H](O)[C@@H](O)[C@H](O)[C@H](O)CO.CNC[C@H](O)[C@@H](O)[C@H](O)[C@H](O)CO.O=C([O-])CN(CCN(CC(=O)[O-])CC(=O)O)CCN(CC(=O)[O-])CC(=O)O.[Gd+3] [MAGNEVIST, complex of gadolinium with diethylenetriaminepentaacetic acid] | – | – | – | – | – | – | – | – | – | – | – | – | distribution [2]: freely distributes in extracellular fluid; elimination [2]: efficient elimination through the renal system
3 | CC(O)CN1CCN(CC(=O)[O-])CCN(CC(=O)[O-])CCN(CC(=O)[O-])CC1.[Gd+3] (centres unmarked) [PROHANCE, [1,4,7-tris(carboxymethyl)-10-(2-hydroxypropyl)-1,4,7,10-tetraazacyclododecanato]-gadolinium] | – | – | – | – | – | – | – | – | – | – | – | – | side effects [3]: fewer side effects than Magnevist; distribution [2]: freely distributes in extracellular fluid; elimination [2]: efficient elimination through the renal system
4 | O=C(O)CN1CCN(CP(=O)(O)O)CCN(CC(=O)O)Cc2cccc(n2)C1.[153Sm] [^153 Sm-PC2A1P] | 0.01% | 0.04% | 0.93% | 0.12% | 1.46% | 0.06% | 13.10% | 0.02% | 0.25% | 0.36% | 1.00% | 47.98% | –
5 | CCCCOP(=O)([O-])CN1CCN(CP(=O)([O-])OCCCC)Cc2cccc(n2)CN(CP(=O)([O-])OCCCC)CC1.[153Sm+3] [^153 Sm-PMBHE] | 0.00% | 0.02% | 0.43% | 0.77% | 2.70% | 0.04% | 57.89% | 0.05% | 0.08% | 0.14% | 1.09% | 3.73% | –
6 | CCCOP(=O)([O-])CN1CCN(CP(=O)([O-])OCCC)Cc2cccc(n2)CN(CP(=O)([O-])OCCC)CC1.[153Sm+3] [^153 Sm-PMPHE] | 0.00% | 0.08% | 1.55% | 2.17% | 4.14% | 0.12% | 10.71% | 0.05% | 0.44% | 0.25% | 1.19% | 10.86% | –
7 | ^153 Sm-3,6,9,15-tetraazabicyclo[9.3.1]pentadeca-1(15),11,13-triene-3,6,9-trimethylenephosphonic acid [^153 Sm-PCTMP] | – | – | – | – | – | – | – | – | – | – | – | – | % injected dose, Kidney ([4]; 30 min (general procedure)): 1.42%; % injected dose, Liver ([4]; 30 min (general procedure)): 0.99%; % injected dose, Spleen ([4]; 30 min (general procedure)): 0.07%; % injected dose, Blood ([4]; 30 min (general procedure)): 6.27%; % injected dose, Muscle ([4]; 30 min (general procedure)): 4.77%; % injected dose, Bone ([4]; 30 min (general procedure)): 34.87%; complexation (percent metal as a complex) [5]: 98%
